{
  "source": "paper PMC10002220",
  "about": "“In Vivo Reversal of P-Glycoprotein-Mediated Drug Resistance in a Breast Cancer Xenograft and in Leukemia Models Using a Novel, Potent, and Nontoxic Epicatechin EC31” (International Journal of Molecular Sciences, 2023)",
  "key": {"P-gp": {"tested_on": "P-gp", "assay": "DOX efflux in P388ADR cells", "assay_type": "cell-based, mouse", "settings": "1 µM modulator; after 180 min of efflux; P388ADR preloaded with 20 µM DOX", "procedure": "Figure 2 Effect of methylated catechin derivatives on intracellular DOX accumulation and DOX efflux in the P-gp-overexpressing cancer cells. […] Then, the cells were washed, and the intracellular DOX level was measured using flow cytometer. (A) LCC6MDR, (B) P388ADR, and (C) K562/P-gp. […] (D) In the efflux study, P388ADR cells were firstly incubated with 20 µM DOX for 45 min. […] At 60, 120, and 180 min, the cells were harvested, and the intracellular DOX level was measured. At 180 min, ** represents p < 0.01, and *** represents p < 0.001, both being relative to P388ADR incubated with DMSO only. […] N = 3 independent experiments. DMSO was used as a solvent control, and the highest amount used was 0.5%.\nWe investigated if methylated catechin derivatives could inhibit P-gp-mediated drug efflux in P-gp-overexpressing cells. […] Without a modulator, intracellularly, the DOX level was maintained at 80% and 11% after 180 min for P388 and P388ADR cells, respectively (Figure 2D). […] After 180 min of efflux, the intracellular DOX level could be maintained at 61% (p < 0.001), 59% (p < 0.01), 44 % (p < 0.001), and 37%, respectively (Figure 2D)."}, "LCC6MDR xenograft": {"tested_on": "LCC6MDR xenograft", "assay": "In vivo PTX and EC31 accumulation in LCC6MDR tumor", "procedure": "(A) In vivo toxicity study of EC31 alone and of its combination with PTX was conducted. BALB/c mice were randomized into five groups with five mice in each group. Body weight of BALB/c mice during treatments was measured every two days. The treatment groups included (1) solvent control (5% NMP + 5% Cremophor EL + 90% PBS to dissolve EC31 and 5% Ethanol + 5% Cremophor EL + 90% PBS to dissolve PTX), (2) PTX (12 mg/kg i.v.), (3) EC31 (30 mg/kg i.p.), (4) EC31 (30 mg/kg i.p.) + PTX (12 mg/kg i.v.), or (5) EC31 (60 mg/kg i.p.) + PTX (12 mg/kg i.v.). The administration was performed every other day 12 times (q2d x 12). The loss of body weight or appetite and treatment-related mortality were monitored and defined as toxicity. (B) BALB/c nude mice were subcutaneously xenografted with LCC6MDR. When the tumor reached 150–300 mm^3, the mice were randomized and administered once with (1) EC31 alone, (2) PTX alone, or (3) EC31 + PTX. […] The tumors were taken out, and their weights were measured. Intratumor concentration of EC31 or PTX was measured using UPLC-MS/MS, and the actual concentration of PTX or EC31 was normalized to the tumor weight. […] Tumor volume and body weight were monitored throughout the treatment period. […] The tumor volume, tumor weight, and doubling time were measured. The number of animal deaths was recorded during the treatment period. […]"}, "fibroblast cells": {"tested_on": "fibroblast cells", "set-up": "method as in PMID 25985195, PMID 34597896", "settings": "cited from earlier work"}},
  "data": [
    {"smiles": "COc1cc(OC)c2c(c1)O[C@H](c1ccc(OC)c(OC)c1)[C@H](OC(=O)c1ccc(F)c(NC(=O)c3cc(OC)c(OC)c(OC)c3)c1)C2", "note": "[EC31]", "values": [
      {"measurement": "Relative intracellular DOX level (%)", "setting": "P-gp", "result": 44, "unit": "%"},
      {"measurement": "increase of intratumor PTX level compared to PTX alone", "setting": "LCC6MDR xenograft; EC31 30 mg/kg i.p. + PTX 12 mg/kg i.v., at 180 min", "result": 6, "unit": "fold"},
      {"measurement": "time intratumor EC31 is maintained above its in vitro EC50 (94 nM)", "setting": "LCC6MDR xenograft; EC31 alone 30 mg/kg i.p., LCC6MDR xenograft", "result": 420, "unit": "min"},
      {"measurement": "IC50", "setting": "fibroblast cells", "result": "> 100", "unit": "µM"}
    ]}
  ]
}
